Key:
ischemic rats [1] = assay: Volume of the infarction after cerebral ischemia, TTC staining; type: in vivo, Sprague-Dawley (SD) rats; conditions: 0.1, 1, 10 mg/kg intraperitoneal, 2 days after treatment, vs control, in particular 1 mg/kg, FIGS. 17A, 17B
Excerpt: (§1) The ischemic rats are induced by an ischemia-reperfusion model to simulate transient focal cerebral ischemia in rats. Test animals are male Sprague-Dawley (SD) rats weighing 250-300 g. The rats are anesthetized with chloral hydrate (0.4 g/kg IP) and subjected to cerebral ischemia. The ischemia-reperfusion model is induced by ligations of bilateral common carotid arteries (CCAs) and a right middle cerebral artery (MCA). The bilateral CCAs are clamped with non-traumatic arterial clips, and the right MCA is ligated with an 10-0 nylon suture. After 90 minutes ischemia, the suture on the MCA and the arterial clips on CCAs are removed to allow reperfusion. Core body temperature is monitored with a thermistor probe (Hewlett-Packard Model 21090A probe, Hewlett-Packard Company, Andover, Mass.), and maintained at 37° C. with a heating pad during anesthesia. After recovery from anesthesia, rat body temperature is maintained at 37° C. with a heat lamp.
In addition, the ischemic rats are intraperitoneal injected with different dosages of the Compound 1 (0.1 mg/kg, 1 mg/kg and 10 mg/kg). The ischemic rats intraperitoneal injected with vehicle are used as the control. At 2 days after the Compound 1 treatment, the ischemic rats are intracardially perfused with PBS. The brain tissues are removed, immersed in cold PBS, and sliced into 2-mm-thick sections. […]

ischemic rats [2] = assay: Body swing test; type: in vivo, Sprague-Dawley (SD) rats; conditions: 1 mg/kg, vs control group; 1, 7, 14 and 28 days after the injection, FIG. 19A
Excerpt: as §1, with “lamp. […]” for “lamp.”
The body swing test is used to assess body asymmetry after MCA ligation. Initially, the ischemic rats are suspended by their tail 10 cm above the cage floor, and lateral body movements are recorded. Specifically, the frequency with which the initial head swing contra-lateral to the ischemic side is counted in twenty consecutive tests and is normalized to the baseline score.

HIF-1α [3] = assay: HIF-1α expressions in the brains of the ischemic rats, Western blot; type: in vivo, Sprague-Dawley (SD) rats
Excerpt: as §1
The ischemia-reperfusion model is established as described above. The ischemic rats are injected intraperitonealy with different dosages of the Compound 1 (0.1 mg/kg, 1 mg/kg and 10 mg/kg) at 4 hours after MCA ligation for three consecutive days. Sham rats undergo same protocol with the exception of the ligation of the bilateral CCAs and the right MCA. The rats only injected a vehicle are used as the control. The ischemic rats are decapitated at 4 hours, 16 hours, 24 hours, 36 hours and 72 hours after the Compound 1 injection. The Bmi-1 expressions and the HIF-1α expressions of the ischemic rats are detected by the Western blot analysis.
The ischemic rats are further treated with 100 mg/kg of the 2-ME2 or stereotaxic injected with the LV-Bmi-1-sh or the LV-control-sh to inhibit the HIF-1α expressions and the Bmi-1 expressions, and then the ischemic rats are treated with 1 mg/kg of the Compound 1. The effect of the administration of the Compound 1 on the Bmi-1 expressions in the brains of the ischemic rats which are reduced the Bmi-1 expressions or the HIF-1α expressions are detected by the Western blot analysis.

HIF-1α [4] = assay: HIF-1α expressions in the PCCs with hypoxic treatment, Western blot; type: cell-based, C57BL/6 mice; conditions: 1 μM 2-ME2 for 16 hours, FIG. 6C
Experimental: (§2) Test cells are primary cortical cultures (PCCs) in this example. The PCCs are prepared from cerebral cortexes of gestation day 17 embryos from C57BL/6 mice as described previously (Cell Death Differ 2008; 15: 143-151). The PCCs are maintained under serum-free conditions in neurobasal medium (Invitrogen), supplemented with B-27 supplement (2%; invitrogen), glutamine (0.5 mM; Sigma Aldrich), glutamate ([…]; Sigma Aldrich), penicillin (100 U/ml) and streptomycin ([…]; Invitrogen). At 4 days in vitro, half of the medium is removed and replaced with fresh medium without glutamate. The cultures are maintained in a humidified incubator at 37° C. with 5% CO2. At 7 days in vitro, the PCCs are used for experimentation.
One group of the PCCs is transduced with LV-HIF-1α-sh (sc-35562-V, Santa Cruz Biotechnology) and LV-control-sh (sc-108080, Santa Cruz Biotechnology) by a lenti-viral infection to reduce the HIF-1α expressions. Another group of the PCCs is treated with 1 μM of 2-ME2 for 16 hours to reduce the HIF-1α expressions in the PCCs. In FIG. 6C, the HIF-1α expressions in the PCCs are decreased both in the LV-HIF-1α-sh transduced group and the 2-ME2 treated group.

HIF-1α [5] = assay: Nuclear translocation of the HIF-1α in the PCCs under hypoxia, double immunofluorescence; type: cell-based, C57BL/6 mice; conditions: 1 μM 2-ME2 for 16 hours, then 1% O2 for 8 hours, FIG. 6A
Experimental: as §2
The subcellular locations of the HIF-1α and the Bmi-1 in the PCCs under hypoxia are examined by double immunofluorescence study. The PCCs are divided into three groups. One group is cultured with 21% of O2 as a control group. Another group is cultured with 1% of O2 for 8 hours as a hypoxic group. The other group is treated with 1 μM of 2-ME2 for 16 hours and then cultured with 1% of O2 for 8 hours as a 2-ME2 treated hypoxic group.

Bmi-1 = Bmi-1 expressions of the brains of 2-ME2 treated ischemic rats, immunohistochemistry and Western blot; type: in vivo, Sprague-Dawley (SD) rats; conditions: 2-ME2 50, 100 or 150 mg/kg intraperitoneal, dose-dependent manner, FIGS. 5B, 5C
Excerpt: as §1
2-ME2 (Sigma Aldrich, USA) is dissolved in DMSO to obtain a 10 mmol/L solution. For in vivo experiments, the whole procedure is performed as previously described (Clin Cancer Res 2004, 10: 8665-8673). […]

| SMILES | volume of the infarction (TTC staining) (ischemic rats [1]) | neurological recovery in the body swing test (ischemic rats [2]) | treatment time with the highest HIF-1α expression (HIF-1α [3]; 1 mg/kg, 4 to 72 hours after injection, FIG. 13A) [h] | HIF-1α expressions in the brains of the ischemic rats (HIF-1α [3]; 0.1, 1, 10 mg/kg intraperitoneal, vs control and sham rats, FIGS. 13A, 13B) | dosage with the highest HIF-1α expression (HIF-1α [3]; 0.1, 1, 10 mg/kg tested, 36 hours, FIG. 13B) [mg/kg] | HIF-1α expressions in the PCCs (HIF-1α [4]) | translocation of the HIF-1α to the nucleus under hypoxia (HIF-1α [5]) | upregulated Bmi-1 immunoreactivity and protein expressions after the cerebral ischemia (Bmi-1) |
| --- | --- | --- | --- | --- | --- | --- | --- | --- |
| COC(=O)C1=CO[C@@H](O)[C@@H]2C(COC(=O)[C@@H](N)Cc3ccccc3)=CC[C@H]12 [Compound 1] | much smaller | much more neurological recovery | 4 | significantly increases | 1 | – | – | – |
| COc1cc2c(cc1O)CC[C@@H]1[C@@H]2CC[C@]2(C)[C@@H](O)CC[C@@H]12 [Compound 2-ME2, 2-Methoxyestradiol, reference compound] | – | – | – | – | – | decreased | abolishes the translocation | suppressed |
